The results in this text go back to PubChem BioAssay AID200 (DTP/NCI, 2004).

The test has as its system B6C3F1 mice, B16 melanoma ip, median survival T/C. The test can be described thus: NCI In Vivo Anticancer Drug Screen. Data for tumor model B16 Melanoma (intraperitoneal) in B6C3F1 mice. The following applies: endpoint: median survival time, higher = longer survival. Put shortly: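 Antitumor effect was judged in mice with transplanted tumors by dividing the treated group's survival measure by that of vehicle controls.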

Several values for one entry are separate records, joined by “and”; a condition that tells them apart may be missing. Equal values may be shown once. Toxic doses and inconclusive results are not listed.

As to `CC(=O)OC1C(O)C(C)OC(OC2C(OC(=O)C3CCC4C(C3)OC3(CC(OC(=O)/C=C/c5ccccc5)C(C)CO3)C43CO3)OC(C)C(O)C2OC(C)=O)C1O` (stereo not given), the T/C by setting is: (dose: 0.38 mg/kg/injection, schedule: Q03HX024 (ip), vehicle: other) 111 % of control; (dose: 0.75 mg/kg/injection, schedule: Q03HX024 (ip), vehicle: other) 120 % of control; (dose: 0.9 mg/kg/injection, schedule: Q01DX005 (iv), vehicle: other) 111 % of control; (dose: 1.0 mg/kg/injection, schedule: Q01DX009 (ip), vehicle: distilled water + alcohol) 122 % of control; (dose: 1.0 mg/kg/injection, schedule: Q01DX009 (ip), vehicle: other) 120 % of control and 122 % of control; (dose: 1.0 mg/kg/injection, schedule: Q01DX009 (ip), vehicle: saline + Tween-80 + alcohol) 116 % of control. Moreover, the T/C was 110 % of control and 115 % of control (dose: 1.0 mg/kg/injection, schedule: Q01DX009 (ip), vehicle: saline + alcohol); 123 % of control (dose: 1.13 mg/kg/injection, schedule: Q03HX008 (ip), vehicle: other); 103 % of control (dose: 1.8 mg/kg/injection, schedule: Q01DX005 (iv), vehicle: other); 158 % of control (dose: 2.0 mg/kg/injection, schedule: Q01DX009 (ip), vehicle: distilled water + alcohol); 152 % of control (dose: 2.0 mg/kg/injection, schedule: Q01DX009 (ip), vehicle: other); 157 % of control (dose: 2.0 mg/kg/injection, schedule: Q01DX009 (ip), vehicle: saline + Tween-80 + alcohol). Moreover, the T/C was 114 % of control (dose: 2.25 mg/kg/injection, schedule: Q01DX001 (iv), vehicle: other); 119 % of control (dose: 2.25 mg/kg/injection, schedule: Q03HX008 (ip), vehicle: other); 122 % of control (dose: 3.0 mg/kg/injection, schedule: Q04DX003 (ip), vehicle: other); 107 % of control (dose: 3.6 mg/kg/injection, schedule: Q01DX005 (iv), vehicle: other); 184 % of control (dose: 4.0 mg/kg/injection, schedule: Q01DX009 (ip), vehicle: distilled water + alcohol); 175 % of control (dose: 4.0 mg/kg/injection, schedule: Q01DX009 (ip), vehicle: other). Moreover, the T/C runs as follows: (dose: 4.0 mg/kg/injection, schedule: Q01DX009 (ip), vehicle: saline + Tween-80 + alcohol) 185 % of control; (dose: 4.0 mg/kg/injection, schedule: Q01DX009 (ip), vehicle: saline) 163 % of control; (dose: 4.0 mg/kg/injection, schedule: Q01DX009 (oral), vehicle: other) 102 % of control; (dose: 4.0 mg/kg/injection, schedule: Q01DX009 (sc), vehicle: other) 108 % of control; (dose: 4.5 mg/kg/injection, schedule: Q01DX001 (ip), vehicle: other) 117 % of control; (dose: 4.5 mg/kg/injection, schedule: Q01DX001 (iv), vehicle: other) 105 % of control. Moreover, the T/C is 119 % of control (dose: 7.2 mg/kg/injection, schedule: Q01DX005 (iv), vehicle: other); 176 % of control (dose: 8.0 mg/kg/injection, schedule: Q01DX009 (ip), vehicle: distilled water + alcohol); 158 % of control and 174 % of control (dose: 8.0 mg/kg/injection, schedule: Q01DX009 (ip), vehicle: other); 182 % of control (dose: 8.0 mg/kg/injection, schedule: Q01DX009 (ip), vehicle: saline + Tween-80 + alcohol); 161 % of control (dose: 8.0 mg/kg/injection, schedule: Q01DX009 (ip), vehicle: saline); 104 % of control (dose: 8.0 mg/kg/injection, schedule: Q01DX009 (oral), vehicle: other). Also, the T/C runs as follows: (dose: 8.0 mg/kg/injection, schedule: Q01DX009 (sc), vehicle: other) 106 % of control; (dose: 8.0 mg/kg/injection, schedule: Q02DX005 (ip), vehicle: saline + Tween-80 + alcohol) 158 % of control; (dose: 9.0 mg/kg/injection, schedule: Q01DX001 (ip), vehicle: other) 114 % of control; (dose: 9.0 mg/kg/injection, schedule: Q01DX001 (iv), vehicle: other) 111 % of control; (dose: 12.0 mg/kg/injection, schedule: Q04DX003 (ip), vehicle: saline + alcohol) 124 % of control; (dose: 14.4 mg/kg/injection, schedule: Q01DX005 (ip), vehicle: other) 160 % of control. The T/C runs as follows: (dose: 14.4 mg/kg/injection, schedule: Q01DX005 (iv), vehicle: other) 113 % of control; (dose: 16.0 mg/kg/injection, schedule: Q01DX009 (ip), vehicle: distilled water + alcohol) 150 % of control; (dose: 16.0 mg/kg/injection, schedule: Q01DX009 (ip), vehicle: other) 177 % of control and 188 % of control; (dose: 16.0 mg/kg/injection, schedule: Q01DX009 (ip), vehicle: saline + Tween-80 + alcohol) 179 % of control; (dose: 16.0 mg/kg/injection, schedule: Q01DX009 (oral), vehicle: other) 102 % of control; (dose: 16.0 mg/kg/injection, schedule: Q01DX009 (sc), vehicle: other) 114 % of control. Further, the T/C runs as follows: (dose: 16.0 mg/kg/injection, schedule: Q02DX005 (ip), vehicle: saline + Tween-80 + alcohol) 166 % of control; (dose: 16.0 mg/kg/injection, schedule: Q02DX005 (ip), vehicle: saline + alcohol) 155 % of control; (dose: 18.0 mg/kg/injection, schedule: Q01DX001 (ip), vehicle: other) 120 % of control; (dose: 18.0 mg/kg/injection, schedule: Q01DX001 (iv), vehicle: other) 117 % of control; (dose: 32.0 mg/kg/injection, schedule: Q01DX009 (oral), vehicle: other) 101 % of control; (dose: 32.0 mg/kg/injection, schedule: Q01DX009 (sc), vehicle: other) 112 % of control. In addition, the T/C (dose: 32.0 mg/kg/injection, schedule: Q02DX005 (ip), vehicle: saline + alcohol) was 154 % of control; the T/C (dose: 36.0 mg/kg/injection, schedule: Q01DX001 (ip), vehicle: other) is 119 % of control; the T/C (dose: 96.0 mg/kg/injection, schedule: Q04DX003 (ip), vehicle: saline + Tween-80 + alcohol) was 94 % of control.
Turning to `C=C(C)CNC1=C(C)C(=O)C2=C(C1=O)[C@H](COC(N)=O)[C@]1(OC)[C@@H]3N[C@@H]3CN21`, the T/C is, setting by setting: (dose: 0.5 mg/kg/injection, schedule: Q01DX001 (ip), vehicle: distilled water + Tween-80) 122 % of control; (dose: 4.0 mg/kg/injection, schedule: Q01DX001 (ip), vehicle: distilled water + Tween-80) 160 % of control; (dose: 8.0 mg/kg/injection, schedule: Q01DX001 (ip), vehicle: distilled water + Tween-80) 186 % of control; (dose: 16.0 mg/kg/injection, schedule: Q01DX001 (ip), vehicle: distilled water + Tween-80) 226 % of control.
`CCCCCCCCCCCCCCCCCC(=O)OCC(=O)OCC(=O)[C@]1(O)Cc2c(O)c3c(c(O)c2[C@@H](OC2CC(N)C(O)C(C)O2)C1)C(=O)c1c(OC)cccc1C3=O` (stereo not given in full): the T/C by setting is: (dose: 0.75 mg/kg/injection, schedule: Q01DX009 (ip), vehicle: saline) 160 % of control and 211 % of control; (dose: 1.5 mg/kg/injection, schedule: Q01DX009 (ip), vehicle: saline) 208 % of control and 333 % of control; (dose: 3.0 mg/kg/injection, schedule: Q01DX009 (ip), vehicle: saline) 255 % of control and 333 % of control; (dose: 6.0 mg/kg/injection, schedule: Q01DX009 (ip), vehicle: saline) 238 % of control and 333 % of control.
`NCC(O)c1ccc(O)c(O)c1` (stereo not given): the T/C runs as follows: (dose: 0.39 mg/kg/injection, schedule: Q01DX009 (ip), vehicle: suspension in saline) 109 % of control; (dose: 0.75 mg/kg/injection, schedule: Q01DX009 (ip), vehicle: suspension in saline) 96 % of control; (dose: 1.5 mg/kg/injection, schedule: Q01DX009 (ip), vehicle: suspension in saline) 103 % of control; (dose: 3.0 mg/kg/injection, schedule: Q01DX009 (ip), vehicle: suspension in saline) 100 % of control; (dose: 6.0 mg/kg/injection, schedule: Q01DX009 (ip), vehicle: suspension in saline) 100 % of control and 106 % of control; (dose: 12.0 mg/kg/injection, schedule: Q01DX009 (ip), vehicle: suspension in saline) 124 % of control and 105 % of control. Also, where the note is “dose: 24.0 mg/kg/injection, schedule: Q01DX009 (ip), vehicle: suspension in saline”, the T/C was 100 % of control.
Take `O=NNc1ncc(Br)cc1Br`: the T/C was 108 % of control (dose: 6.25 mg/kg/injection, schedule: Q01DX009 (ip), vehicle: water); 114 % of control (dose: 12.5 mg/kg/injection, schedule: Q01DX009 (ip), vehicle: water); 110 % of control (dose: 25.0 mg/kg/injection, schedule: Q01DX009 (ip), vehicle: water); 98 % of control (dose: 100.0 mg/kg/injection, schedule: Q01DX009 (ip), vehicle: water).
